Assay results as given in ChEMBL document CHEMBL1201861, “Genomics of Drug Sensitity in Cancer screening data, Wellcome Trust Sanger Institute”.

Tests used:
Test in all cases: cells
Type in all cases: functional, cell-based
Details in all cases: Homo sapiens
COLO-800 = system: COLO-800;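 also: growth inhibition of COLO-800 cells, read out with a cell viability assay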
Description: SANGER: Inhibition of human COLO-800 cell growth in a cell viability assay.

D-263MG = system: D-263MG
Description: SANGER: Inhibition of human D-263MG cell growth in a cell viability assay.

DSH1 = system: DSH1;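 also: growth inhibition of human DSH1 cells, measured with a cell viability readout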
Description: SANGER: Inhibition of human DSH1 cell growth in a cell viability assay.

EM-2 = system: EM-2;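 also: growth inhibition of EM-2 cells, read out with a cell viability assay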
Description: SANGER: Inhibition of human EM-2 cell growth in a cell viability assay.

ES8 = system: ES8;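 also: growth inhibition of human ES8 cells, read out with a cell viability assay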
Description: SANGER: Inhibition of human ES8 cell growth in a cell viability assay.

GAK = system: GAK;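 also: cell growth inhibition read out by a cell viability assay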
Description: SANGER: Inhibition of human GAK cell growth in a cell viability assay.

GI-ME-N = system: GI-ME-N;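 also: growth inhibition of human GI-ME-N cells, read out with a cell viability assay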
Description: SANGER: Inhibition of human GI-ME-N cell growth in a cell viability assay.

GR-ST = system: GR-ST
Description: SANGER: Inhibition of human GR-ST cell growth in a cell viability assay.

HAL-01 = system: HAL-01;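 also: growth inhibition of human HAL-01 cells, read out with a cell viability assay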
Description: SANGER: Inhibition of human HAL-01 cell growth in a cell viability assay.

HL-60 = system: HL-60;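 also: growth inhibition of human HL-60 cells, read out with a cell viability assay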
Description: SANGER: Inhibition of human HL-60 cell growth in a cell viability assay.

HOP-62 = system: HOP-62;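 also: cell growth inhibition determined with a viability assay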
Description: SANGER: Inhibition of human HOP-62 cell growth in a cell viability assay.

IST-MEL1 = system: IST-MEL1;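 also: growth inhibition of the cell line, read out with a cell viability assay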
Description: SANGER: Inhibition of human IST-MEL1 cell growth in a cell viability assay.

J-RT3-T3-5 = system: J-RT3-T3-5;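 also: cell viability assay measuring growth inhibition of human J-RT3-T3-5 cells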
Description: SANGER: Inhibition of human J-RT3-T3-5 cell growth in a cell viability assay.

JAR = system: JAR;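 also: growth inhibition of human JAR cells determined with a cell viability assay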
Description: SANGER: Inhibition of human JAR cell growth in a cell viability assay.

K5 = system: K5
Description: SANGER: Inhibition of human K5 cell growth in a cell viability assay.

KALS-1 = system: KALS-1;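 also: growth inhibition of KALS-1 cells, determined with a cell viability assay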
Description: SANGER: Inhibition of human KALS-1 cell growth in a cell viability assay.

KINGS-1 = system: KINGS-1;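 also: cell viability assay measuring suppression of KINGS-1 cell growth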
Description: SANGER: Inhibition of human KINGS-1 cell growth in a cell viability assay.

KS-1 = system: KS-1;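 also: growth inhibition of KS-1 cells, read out with a cell viability assay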
Description: SANGER: Inhibition of human KS-1 cell growth in a cell viability assay.

LB373-MEL-D = system: LB373-MEL-D;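 also: growth inhibition of the cell line, read out in a cell viability assay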
Description: SANGER: Inhibition of human LB373-MEL-D cell growth in a cell viability assay.

LB771-HNC = system: LB771-HNC;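 also: growth inhibition of LB771-HNC human cells, read out with a cell viability assay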
Description: SANGER: Inhibition of human LB771-HNC cell growth in a cell viability assay.

LNCaP-Clone-FGC = system: LNCaP-Clone-FGC
Description: SANGER: Inhibition of human LNCaP-Clone-FGC cell growth in a cell viability assay.

MHH-NB-11 = system: MHH-NB-11;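 also: growth inhibition of human MHH-NB-11 cells, read out by a cell viability assay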
Description: SANGER: Inhibition of human MHH-NB-11 cell growth in a cell viability assay.

MLMA = system: MLMA;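 also: growth inhibition of MLMA cells (human), determined through a cell viability readout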
Description: SANGER: Inhibition of human MLMA cell growth in a cell viability assay.

MOLT-16 = system: MOLT-16;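 also: growth inhibition of human MOLT-16 cells, read out with a cell viability assay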
Description: SANGER: Inhibition of human MOLT-16 cell growth in a cell viability assay.

MOLT-4 = system: MOLT-4;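 also: growth inhibition of MOLT-4 cells, determined with a cell viability readout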
Description: SANGER: Inhibition of human MOLT-4 cell growth in a cell viability assay.

MPP-89 = system: MPP-89;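 also: growth inhibition of human MPP-89 cells, read out with a cell viability assay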
Description: SANGER: Inhibition of human MPP-89 cell growth in a cell viability assay.

MS-1 = system: MS-1;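 also: growth inhibition of MS-1 cells, read out by cell viability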
Description: SANGER: Inhibition of human MS-1 cell growth in a cell viability assay.

MSTO-211H = system: MSTO-211H
Description: SANGER: Inhibition of human MSTO-211H cell growth in a cell viability assay.

NB10 = system: NB10;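 also: growth inhibition of NB10 cells, read out by a cell viability assay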
Description: SANGER: Inhibition of human NB10 cell growth in a cell viability assay.

NB13 = system: NB13;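 also: cell viability readout measuring growth inhibition of human NB13 cells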
Description: SANGER: Inhibition of human NB13 cell growth in a cell viability assay.

NCI-H1299 = system: NCI-H1299;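 also: growth inhibition of human NCI-H1299 cells, read out by a cell viability assay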
Description: SANGER: Inhibition of human NCI-H1299 cell growth in a cell viability assay.

NCI-H1304 = system: NCI-H1304;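 also: growth inhibition of the cancer cell line, measured in a cell viability assay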
Description: SANGER: Inhibition of human NCI-H1304 cell growth in a cell viability assay.

NCI-H1648 = system: NCI-H1648;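 also: cell viability assay measuring inhibition of NCI-H1648 cell growth, from the Sanger screening data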
Description: SANGER: Inhibition of human NCI-H1648 cell growth in a cell viability assay.

NCI-H1650 = system: NCI-H1650;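 also: growth inhibition of human NCI-H1650 cells measured by a cell viability assay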
Description: SANGER: Inhibition of human NCI-H1650 cell growth in a cell viability assay.

NCI-H2126 = system: NCI-H2126;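 also: growth inhibition of the cancer cell line, determined with a cell viability readout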
Description: SANGER: Inhibition of human NCI-H2126 cell growth in a cell viability assay.

NCI-H747 = system: NCI-H747;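 also: growth inhibition of human NCI-H747 cells, read out by a cell viability assay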
Description: SANGER: Inhibition of human NCI-H747 cell growth in a cell viability assay.

NCI-H82 = system: NCI-H82;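 also: growth inhibition of NCI-H82 cells, measured with a cell viability readout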
Description: SANGER: Inhibition of human NCI-H82 cell growth in a cell viability assay.

SNU1 = system: SNU1;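 also: growth inhibition of human NCI-SNU-1 cells, measured with a cell viability assay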
Description: SANGER: Inhibition of human NCI-SNU-1 cell growth in a cell viability assay.

OCUB-M = system: OCUB-M;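 also: growth inhibition of the cancer cell line, read out through a cell viability assay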
Description: SANGER: Inhibition of human OCUB-M cell growth in a cell viability assay.

OS-RC-2 = system: OS-RC-2;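 also: growth inhibition of human OS-RC-2 cells, measured by a cell viability assay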
Description: SANGER: Inhibition of human OS-RC-2 cell growth in a cell viability assay.

SCC-15 = system: SCC-15;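 also: growth inhibition of SCC-15 cells, read out with a cell viability assay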
Description: SANGER: Inhibition of human SCC-15 cell growth in a cell viability assay.

SF-539 = system: SF-539;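 also: Read-out is a cell viability assay, with IC50 reflecting inhibition of cell growth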
Description: SANGER: Inhibition of human SF539 cell growth in a cell viability assay.

SK-NEP-1 = system: SK-NEP-1;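 also: growth inhibition of human SK-NEP-1 cells, read out by a cell viability assay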
Description: SANGER: Inhibition of human SK-NEP-1 cell growth in a cell viability assay.

SK-UT-1 = system: SK-UT-1;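 also: growth inhibition of SK-UT-1 cells, measured by a cell viability assay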
Description: SANGER: Inhibition of human SK-UT-1 cell growth in a cell viability assay.

8-MG-BA = system: 8-MG-BA;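 also: growth inhibition of 8-MG-BA cells, read out with a cell viability assay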
Description: SANGER: Inhibition of human 8-MG-BA cell growth in a cell viability assay.

A3-KAW = system: A3-KAW;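 also: growth inhibition of human A3-KAW cells, read out with a cell viability assay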
Description: SANGER: Inhibition of human A3-KAW cell growth in a cell viability assay.

ALL-PO = system: ALL-PO;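 also: growth inhibition of ALL-PO cells, read out by a cell viability assay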
Description: SANGER: Inhibition of human ALL-PO cell growth in a cell viability assay.

AM-38 = system: AM-38;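 also: growth inhibition of AM-38 cells of human origin, read out by a cell viability assay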
Description: SANGER: Inhibition of human AM-38 cell growth in a cell viability assay.

BT-474 = system: BT-474
Description: SANGER: Inhibition of human BT-474 cell growth in a cell viability assay.

Becker = system: Becker;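 also: growth inhibition of Becker cells, read out with a cell viability assay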
Description: SANGER: Inhibition of human Becker cell growth in a cell viability assay.

C8166 = system: C8166;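 also: growth inhibition of human C8166 cells measured by a cell viability assay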
Description: SANGER: Inhibition of human C8166 cell growth in a cell viability assay.

TE-5 = system: TE-5;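 also: inhibition of cell growth, read out by a cell viability assay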
Description: SANGER: Inhibition of human TE-5 cell growth in a cell viability assay.

TE-9 = system: TE-9;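 also: cell growth inhibition, measured with a cell viability readout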
Description: SANGER: Inhibition of human TE-9 cell growth in a cell viability assay.

U-266 = system: U-266
Description: SANGER: Inhibition of human U-266 cell growth in a cell viability assay.

VA-ES-BJ = system: VA-ES-BJ;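 also: growth inhibition of the VA-ES-BJ cell line, read out by a cell viability assay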
Description: SANGER: Inhibition of human VA-ES-BJ cell growth in a cell viability assay.

no-10 = system: no-10;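 also: growth inhibition of no-10 cells, read out with a cell viability assay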
Description: SANGER: Inhibition of human no-10 cell growth in a cell viability assay.

COR-L88 = system: COR-L88
Description: SANGER: Inhibition of human COR-L88 cell growth in a cell viability assay.

HCC2218 = system: HCC2218
Description: SANGER: Inhibition of human HCC2218 cell growth in a cell viability assay.

KU812 cell line = system: KU812 cell line
Description: SANGER: Inhibition of human KU812 cell growth in a cell viability assay.

KY821 = system: KY821
Description: SANGER: Inhibition of human KY821 cell growth in a cell viability assay.

SNU-5 = system: SNU-5
Description: SANGER: Inhibition of human NCI-SNU-5 cell growth in a cell viability assay.

BV-173 = system: BV-173
Description: SANGER: Inhibition of human BV-173 cell growth in a cell viability assay.

SMILES: O=c1cc(N2CCOCC2)oc2c(-c3cccc4c3sc3ccccc34)cccc12
- IC50 (COLO-800): > 2 µM
- IC50 (D-263MG): > 2 µM
- IC50 (DSH1): > 2 µM
- IC50 (EM-2): > 2 µM
- IC50 (ES8): > 2 µM
- IC50 (GAK): > 2 µM
- IC50 (GI-ME-N): > 2 µM
- IC50 (GR-ST): > 2 µM
- IC50 (HAL-01): > 2 µM
- IC50 (HL-60): 1.38 µM
- IC50 (HOP-62): > 2 µM
- IC50 (IST-MEL1): > 2 µM
- IC50 (J-RT3-T3-5): > 2 µM
- IC50 (JAR): > 2 µM
- IC50 (K5): > 2 µM
- IC50 (KALS-1): > 2 µM
- IC50 (KINGS-1): > 2 µM
- IC50 (KS-1): > 2 µM
- IC50 (LB373-MEL-D): > 2 µM
- IC50 (LB771-HNC): > 2 µM
- IC50 (LNCaP-Clone-FGC): > 2 µM
- IC50 (MHH-NB-11): > 2 µM
- IC50 (MLMA): > 2 µM
- IC50 (MOLT-16): > 2 µM
- IC50 (MOLT-4): > 2 µM
- IC50 (MPP-89): > 2 µM
- IC50 (MS-1): > 2 µM
- IC50 (MSTO-211H): > 2 µM
- IC50 (NB10): > 2 µM
- IC50 (NB13): > 2 µM
- IC50 (NCI-H1299): > 2 µM
- IC50 (NCI-H1304): > 2 µM
- IC50 (NCI-H1648): > 2 µM
- IC50 (NCI-H1650): > 2 µM
- IC50 (NCI-H2126): > 2 µM
- IC50 (NCI-H747): > 2 µM
- IC50 (NCI-H82): > 2 µM
- IC50 (SNU1): 0.61 µM
- IC50 (OCUB-M): > 2 µM
- IC50 (OS-RC-2): > 2 µM
- IC50 (SCC-15): > 2 µM
- IC50 (SF-539): > 2 µM
- IC50 (SK-NEP-1): > 2 µM
- IC50 (SK-UT-1): > 2 µM
- IC50 (8-MG-BA): > 2 µM
- IC50 (A3-KAW): > 2 µM
- IC50 (ALL-PO): > 2 µM
- IC50 (AM-38): > 2 µM
- IC50 (BT-474): > 2 µM
- IC50 (Becker): > 2 µM
- IC50 (C8166): > 2 µM
- IC50 (TE-5): > 2 µM
- IC50 (TE-9): > 2 µM
- IC50 (U-266): > 2 µM
- IC50 (VA-ES-BJ): > 2 µM
- IC50 (no-10): > 2 µM

SMILES: Cn1c(=O)n(-c2ccc(C(C)(C)C#N)cc2)c2c3cc(-c4cnc5ccccc5c4)ccc3ncc21 [DACTOLISIB]
- IC50 (COLO-800): 0.0329 µM
- IC50 (COR-L88): 0.848 µM
- IC50 (D-263MG): 0.0293 µM
- IC50 (DSH1): 0.407 µM
- IC50 (EM-2): 0.0544 µM
- IC50 (ES8): 0.0109 µM
- IC50 (GAK): 0.0989 µM
- IC50 (GI-ME-N): 0.0299 µM
- IC50 (GR-ST): 0.0529 µM
- IC50 (HAL-01): 0.0558 µM
- IC50 (HCC2218): 0.00661 µM
- IC50 (HL-60): 0.123 µM
- IC50 (IST-MEL1): 0.0188 µM
- IC50 (J-RT3-T3-5): 0.023 µM
- IC50 (JAR): 0.956 µM
- IC50 (KALS-1): 0.0825 µM
- IC50 (KINGS-1): 0.0823 µM
- IC50 (KS-1): 0.0447 µM
- IC50 (KU812 cell line): 0.0687 µM
- IC50 (KY821): 0.0562 µM
- IC50 (LB771-HNC): 0.286 µM
- IC50 (LNCaP-Clone-FGC): 0.0376 µM
- IC50 (MHH-NB-11): 0.629 µM
- IC50 (MLMA): 0.137 µM
- IC50 (MOLT-16): 0.0172 µM
- IC50 (MOLT-4): 0.0251 µM
- IC50 (MPP-89): 0.0253 µM
- IC50 (MS-1): 0.108 µM
- IC50 (MSTO-211H): 0.0635 µM
- IC50 (NB10): 0.24 µM
- IC50 (NB13): 0.118 µM
- IC50 (NCI-H1299): 0.15 µM
- IC50 (NCI-H1304): 1.65 µM
- IC50 (NCI-H1648): 0.113 µM
- IC50 (NCI-H1650): 0.204 µM
- IC50 (NCI-H2126): 0.148 µM
- IC50 (NCI-H747): 0.119 µM
- IC50 (NCI-H82): > 2 µM
- IC50 (SNU1): 0.022 µM
- IC50 (SNU-5): 0.337 µM
- IC50 (OCUB-M): 0.0824 µM
- IC50 (OS-RC-2): 0.0165 µM
- IC50 (SCC-15): 0.174 µM
- IC50 (SF-539): 0.0523 µM
- IC50 (SK-NEP-1): 0.0342 µM
- IC50 (8-MG-BA): 0.0373 µM
- IC50 (A3-KAW): 0.0286 µM
- IC50 (ALL-PO): 0.416 µM
- IC50 (AM-38): 0.0693 µM
- IC50 (BT-474): 0.236 µM
- IC50 (BV-173): 0.0239 µM
- IC50 (Becker): 0.0342 µM
- IC50 (C8166): > 2 µM
- IC50 (TE-5): 0.0468 µM
- IC50 (TE-9): 1.13 µM
- IC50 (U-266): 0.206 µM
- IC50 (VA-ES-BJ): 0.0178 µM
- IC50 (no-10): 0.201 µM
